Experiments:
[1] = 101.33 kPa, Liquid
[2] = xn = mol fraction of the nth substance listed; settings: 101 kPa, Fluid (supercritical or subcritical phases)
[3] = cn = amount concentration of the nth substance listed, in mol/dm3; settings: 101 kPa, Liquid, Direct current cell with electrodes

CCn1cc[n+](C)c1.COCCOCCOS(=O)(=O)[O-] [1-ethyl-3-methylimidazolium 2-(2-methoxyethoxy) ethylsulfate]
[1]
Settings | mass density [kg/m3]
303.2 K | 1233.4
308.2 K | 1230
313.2 K | 1226.6
318.2 K | 1223.3
323.2 K | 1219.9

CCn1cc[n+](C)c1.COCCOCCOS(=O)(=O)[O-] [1-ethyl-3-methylimidazolium 2-(2-methoxyethoxy) ethylsulfate] + O
Settings | binary diffusion coefficient, 303.2 K [m2/s] | binary diffusion coefficient, 308.2 K [m2/s] | binary diffusion coefficient, 313.2 K [m2/s] | binary diffusion coefficient, 318.2 K [m2/s] | binary diffusion coefficient, 323.2 K [m2/s] | molar conductivity, 303.2 K [S·m2/mol] | molar conductivity, 308.2 K [S·m2/mol] | molar conductivity, 313.2 K [S·m2/mol] | molar conductivity, 318.2 K [S·m2/mol] | molar conductivity, 323.2 K [S·m2/mol]
[2], x2 = 0 | 9.95e-10 | 1.06e-09 | 1.27e-09 | 1.32e-09 | 1.51e-09 | – | – | – | – | –
[3], c1 = 9e-10 | – | – | – | – | – | 0.0074 | 0.0081 | 0.009 | 0.0098 | 0.0107
[3], c1 = 3.9e-09 | – | – | – | – | – | 0.0067 | 0.0075 | 0.0082 | 0.0091 | 0.0097
[3], c1 = 1.06e-08 | – | – | – | – | – | 0.0062 | 0.007 | 0.0077 | 0.0084 | 0.0091
[3], c1 = 1.82e-08 | – | – | – | – | – | 0.006 | 0.0067 | 0.0074 | 0.0081 | 0.0088
[3], c1 = 2.57e-08 | – | – | – | – | – | 0.0059 | 0.0065 | 0.0072 | 0.0076 | 0.0083

CCn1cc[n+](C)c1.N#CN=C=[N-] [1-ethyl-3-methylimidazolium dicyanamide]
[1]
Settings | mass density [kg/m3]
303.2 K | 1105.8
308.2 K | 1102.6
313.2 K | 1099.4
318.2 K | 1096.2
323.2 K | 1093

CCn1cc[n+](C)c1.N#CN=C=[N-] [1-ethyl-3-methylimidazolium dicyanamide] + O
Settings | binary diffusion coefficient, 303.2 K [m2/s] | binary diffusion coefficient, 308.2 K [m2/s] | binary diffusion coefficient, 313.2 K [m2/s] | binary diffusion coefficient, 318.2 K [m2/s] | binary diffusion coefficient, 323.2 K [m2/s] | molar conductivity, 303.2 K [S·m2/mol] | molar conductivity, 308.2 K [S·m2/mol] | molar conductivity, 313.2 K [S·m2/mol] | molar conductivity, 318.2 K [S·m2/mol] | molar conductivity, 323.2 K [S·m2/mol]
[2], x1 = 0 | 1.25e-09 | 1.41e-09 | 1.54e-09 | 1.71e-09 | 1.85e-09 | – | – | – | – | –
[3], c1 = 1.2e-09 | – | – | – | – | – | 0.0095 | 0.0103 | 0.011 | 0.0123 | 0.0133
[3], c1 = 6.6e-09 | – | – | – | – | – | 0.009 | 0.0098 | 0.0108 | 0.0118 | 0.0128
[3], c1 = 1.19e-08 | – | – | – | – | – | 0.0087 | 0.0095 | 0.0105 | 0.0113 | 0.0125
[3], c1 = 2.28e-08 | – | – | – | – | – | 0.0083 | 0.0092 | 0.01 | 0.0109 | 0.0119
[3], c1 = 4.15e-08 | – | – | – | – | – | 0.0079 | 0.0088 | 0.0095 | 0.0103 | 0.0114

CCOS(=O)(=O)[O-].CCn1cc[n+](C)c1 [1-ethyl-3-methylimidazolium ethyl sulfate]
[1]
Settings | mass density [kg/m3]
303.2 K | 1232.7
308.2 K | 1229.4
313.2 K | 1226.2
318.2 K | 1222.9
323.2 K | 1219.7

CCOS(=O)(=O)[O-].CCn1cc[n+](C)c1 [1-ethyl-3-methylimidazolium ethyl sulfate] + O
Settings | binary diffusion coefficient, 303.2 K [m2/s] | binary diffusion coefficient, 308.2 K [m2/s] | binary diffusion coefficient, 313.2 K [m2/s] | binary diffusion coefficient, 318.2 K [m2/s] | binary diffusion coefficient, 323.2 K [m2/s] | molar conductivity, 303.2 K [S·m2/mol] | molar conductivity, 308.2 K [S·m2/mol] | molar conductivity, 313.2 K [S·m2/mol] | molar conductivity, 318.2 K [S·m2/mol] | molar conductivity, 323.2 K [S·m2/mol]
[2], x1 = 0 | 1.04e-09 | 1.19e-09 | 1.4e-09 | 1.5e-09 | 1.64e-09 | – | – | – | – | –
[3], c1 = 1.6e-09 | – | – | – | – | – | 0.008 | 0.0089 | 0.0097 | 0.0106 | 0.0116
[3], c1 = 4.6e-09 | – | – | – | – | – | 0.0076 | 0.0084 | 0.0092 | 0.0101 | 0.011
[3], c1 = 8.6e-09 | – | – | – | – | – | 0.0074 | 0.0081 | 0.0089 | 0.0097 | 0.0106
[3], c1 = 1.72e-08 | – | – | – | – | – | 0.0071 | 0.0079 | 0.0086 | 0.0095 | 0.0102
[3], c1 = 3.58e-08 | – | – | – | – | – | 0.0065 | 0.0073 | 0.0082 | 0.0091 | 0.0098
